Earlier results as cited in patent publication US20030180387A1, “Method for increasing the antioxidative potential of selenium-containing aqueous solutions” (priority 2000, published 2003).
Read-outs that look alike come from different tables or passages of the source.

O=[Se](O)O [selenite]
Eo, standard redox potential (acidic environment): −0.740 (acidic environment) Volt | Eo, standard redox potential (basic environment): +0.366 (basic environment) Volt
